Laboratory results: patent US12703704B2, “Process for preparing a composition comprising enantiomerically enriched pyrrolo[2,3-d]pyrimidines” (Sun Pharmaceutical Industries, Inc., priority 2020, dated 2026)

How the values were obtained:
JAK2 = JAK2 (Homo sapiens, UniProt O60674); experiment: JAK2 inhibition (IC50); format: biochemical; conditions: Compound A or a pharmaceutically acceptable salt thereof
JAK1 = JAK1 (Homo sapiens, UniProt P23458); experiment: JAK1 inhibition (IC50); format: biochemical; conditions: Compound A or a pharmaceutically acceptable salt thereof
Chain of JAK1 (P23458 whole entry): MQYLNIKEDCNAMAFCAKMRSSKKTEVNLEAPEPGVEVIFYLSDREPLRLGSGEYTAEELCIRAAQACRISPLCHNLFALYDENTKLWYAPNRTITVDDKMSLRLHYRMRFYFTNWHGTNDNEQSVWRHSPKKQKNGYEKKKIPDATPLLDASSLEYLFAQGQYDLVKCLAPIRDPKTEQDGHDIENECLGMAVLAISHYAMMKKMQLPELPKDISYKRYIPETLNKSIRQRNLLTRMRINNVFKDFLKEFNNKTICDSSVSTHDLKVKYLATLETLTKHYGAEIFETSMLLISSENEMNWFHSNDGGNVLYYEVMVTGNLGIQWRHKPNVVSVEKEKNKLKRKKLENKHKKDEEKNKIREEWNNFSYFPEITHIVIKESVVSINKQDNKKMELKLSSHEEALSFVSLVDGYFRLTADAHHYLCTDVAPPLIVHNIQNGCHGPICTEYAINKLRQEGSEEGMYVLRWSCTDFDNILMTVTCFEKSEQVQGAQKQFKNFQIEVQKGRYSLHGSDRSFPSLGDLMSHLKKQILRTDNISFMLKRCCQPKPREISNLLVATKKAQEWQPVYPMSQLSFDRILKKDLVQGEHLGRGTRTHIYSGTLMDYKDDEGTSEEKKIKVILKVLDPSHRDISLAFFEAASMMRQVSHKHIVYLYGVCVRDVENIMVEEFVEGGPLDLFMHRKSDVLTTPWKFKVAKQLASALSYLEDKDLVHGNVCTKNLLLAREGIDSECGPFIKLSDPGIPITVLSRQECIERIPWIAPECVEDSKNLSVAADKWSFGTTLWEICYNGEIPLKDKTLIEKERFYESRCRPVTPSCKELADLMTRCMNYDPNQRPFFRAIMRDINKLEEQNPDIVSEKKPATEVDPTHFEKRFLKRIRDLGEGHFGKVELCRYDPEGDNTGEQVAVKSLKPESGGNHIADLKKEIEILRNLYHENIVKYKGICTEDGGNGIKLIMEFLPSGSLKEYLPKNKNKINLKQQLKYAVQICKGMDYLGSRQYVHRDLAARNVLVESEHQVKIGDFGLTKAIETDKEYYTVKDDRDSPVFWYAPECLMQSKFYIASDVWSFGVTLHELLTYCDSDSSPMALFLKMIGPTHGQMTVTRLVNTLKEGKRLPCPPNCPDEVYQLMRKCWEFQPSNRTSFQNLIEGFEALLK

Chain of JAK2 (O60674 whole entry): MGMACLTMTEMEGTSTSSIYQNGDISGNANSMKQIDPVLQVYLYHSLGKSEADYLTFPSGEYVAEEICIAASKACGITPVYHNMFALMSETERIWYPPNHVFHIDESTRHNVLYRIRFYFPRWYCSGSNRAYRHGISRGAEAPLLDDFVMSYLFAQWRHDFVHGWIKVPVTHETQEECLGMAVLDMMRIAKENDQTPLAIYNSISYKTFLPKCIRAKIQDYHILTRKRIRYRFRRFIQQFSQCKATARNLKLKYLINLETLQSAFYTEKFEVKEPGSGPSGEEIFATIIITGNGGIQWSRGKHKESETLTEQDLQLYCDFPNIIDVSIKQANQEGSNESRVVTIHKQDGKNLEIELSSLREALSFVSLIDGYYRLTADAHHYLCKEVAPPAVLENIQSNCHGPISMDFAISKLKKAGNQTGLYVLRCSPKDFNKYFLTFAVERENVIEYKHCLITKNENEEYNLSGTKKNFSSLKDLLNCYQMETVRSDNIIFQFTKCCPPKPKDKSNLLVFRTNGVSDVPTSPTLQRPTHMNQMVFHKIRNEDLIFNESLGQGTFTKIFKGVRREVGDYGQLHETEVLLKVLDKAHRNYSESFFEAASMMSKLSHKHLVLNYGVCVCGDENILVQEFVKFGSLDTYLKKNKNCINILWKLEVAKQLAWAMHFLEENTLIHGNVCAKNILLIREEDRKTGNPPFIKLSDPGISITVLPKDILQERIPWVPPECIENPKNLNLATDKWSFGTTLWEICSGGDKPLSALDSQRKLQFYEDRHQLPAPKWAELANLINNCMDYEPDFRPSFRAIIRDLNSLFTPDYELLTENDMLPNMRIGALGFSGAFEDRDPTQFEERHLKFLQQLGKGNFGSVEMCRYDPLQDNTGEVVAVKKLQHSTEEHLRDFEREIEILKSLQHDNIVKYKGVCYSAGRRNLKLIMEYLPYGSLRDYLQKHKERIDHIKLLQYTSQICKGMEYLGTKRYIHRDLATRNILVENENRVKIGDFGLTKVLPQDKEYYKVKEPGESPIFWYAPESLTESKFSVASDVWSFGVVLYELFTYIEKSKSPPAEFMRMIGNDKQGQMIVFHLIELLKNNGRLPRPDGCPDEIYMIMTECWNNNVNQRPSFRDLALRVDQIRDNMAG

IC50 (JAK2): < 100 nM
IC50 (JAK1): < 100 nM
Compound: [2H]C1([2H])C([C@@H](CC(N)=O)n2cc(-c3ncnc4[nH]ccc34)cn2)C([2H])([2H])C([2H])([2H])C1([2H])[2H] [Compound A, (R)-3-(4-(7H-pyrrolo[2,3-d]pyrimidin-4-yl)-1H-pyrazol-1-yl)-3-(cyclopentyl-2,2,3,3,4,4,5,5-d8) propanamide]
